Paper PMC7434893 (British Journal of Cancer, 2020)

Columns and labels:
Pfeiffer = assay: 8-day growth inhibition; type: cell-based; conditions: DLBCL (GC), 8-day assay
NCI-H69 = assay: 8-day growth inhibition; type: cell-based; conditions: SCLC, NCI-H69, 8-day assay
T47D = assay: 8-day growth inhibition; type: cell-based; conditions: Breast, 8-day assay
[1] = Plasma and urine pharmacokinetics, dose-escalation cohorts; type: in vivo, human; conditions: for AUC(0-inf) / AUC(0–24) / Ae, amount of drug dose excreted in urine / CLR / Cav,ss / Cmax / fe, fraction of dose excreted in urine / t1/2 / AUC(0-t): mean (SD); for tmax: median (min, max)
Method: Blood samples were also collected immediately before the dose on day 7 of cycle 1, days 1 and 15 of cycle 2 and on day 1 of cycle 3, and beyond. All urine produced during the time intervals pre-dose, 0–2 h, 2–4 h, 4–10 h and 10–24 h following the single dose on day –2, and after multiple doses on cycle 1, day 15, was collected.

[2] = 50 mg once daily, cycle 1 day 15, steady state
[3] = 100 mg once daily, cycle 1 day 15, steady state
[4] = 200 mg once daily, cycle 1 day 15, steady state
[5] = 400 mg once daily, cycle 1 day 15, steady state
[6] = 600 mg once daily, cycle 1 day 15, steady state
[7] = 800 mg once daily, cycle 1 day 15, steady state

SMILES: O=c1[nH]nc2c3c(cccc13)N=C(CN1Cc3ccccc3C1)N2 [E7449]
- IC50 (Pfeiffer): 0.71 µM
- IC50 (NCI-H69): 1.33 µM
- IC50 (T47D): 7.8 µM
- AUC(0-inf) [1, 2]: 634 (n = 1) ng·h/mL
- AUC(0–24) [1, 2]: 714 (193) ng·h/mL
- Ae, amount of drug dose excreted in urine [1, 2]: 0.19 (0.00) (n = 2) mg
- CLR [1, 2]: 0.3 (0.01) (n = 2) L/h
- Cav,ss [1, 2]: 29.7 (8.03) ng/mL
- Cmax [1, 2]: 264 (227) ng/mL
- fe, fraction of dose excreted in urine [1, 2]: 0.39 (0.01) (n = 2) %
- t1/2 [1, 2]: 9.04 (n = 1) h
- tmax [1, 2]: 1.00 (0.5, 2.00) h
- AUC(0-inf) ([1]; 50 mg, day –2 single dose): 770 (n = 1) ng·h/mL
- AUC(0-t) ([1]; 50 mg, day –2 single dose): 603 (213) ng·h/mL
- AUC(0–24) ([1]; 50 mg, day –2 single dose): 768 (n = 1) ng·h/mL
- Ae, amount of drug dose excreted in urine ([1]; 50 mg, day –2 single dose): 0.11 (0.06) (n = 2) mg
- Cmax ([1]; 50 mg, day –2 single dose): 265 (99.8) ng/mL
- fe, fraction of dose excreted in urine ([1]; 50 mg, day –2 single dose): 0.22 (0.13) (n = 2) %
- t1/2 ([1]; 50 mg, day –2 single dose): 3.42 (n = 1) h
- tmax ([1]; 50 mg, day –2 single dose): 2.00 (0.58, 2.03) h
- AUC(0-inf) [1, 3]: 1150 (266) ng·h/mL
- AUC(0–24) [1, 3]: 1100 (244) ng·h/mL
- Ae, amount of drug dose excreted in urine [1, 3]: 0.70 (n = 1) mg
- CLR [1, 3]: 0.5 (n = 1) L/h
- Cav,ss [1, 3]: 45.8 (10.2) ng/mL
- Cmax [1, 3]: 404 (175) ng/mL
- fe, fraction of dose excreted in urine [1, 3]: 0.70 (n = 1) %
- t1/2 [1, 3]: 8.92 (2.50) h
- tmax [1, 3]: 3.00 (1.00, 4.00) h
- AUC(0-inf) ([1]; 100 mg, day –2 single dose): 895 (99.8) ng·h/mL
- AUC(0-t) ([1]; 100 mg, day –2 single dose): 879 (104) ng·h/mL
- AUC(0–24) ([1]; 100 mg, day –2 single dose): 879 (104) ng·h/mL
- Ae, amount of drug dose excreted in urine ([1]; 100 mg, day –2 single dose): 0.47 (n = 1) mg
- CLR ([1]; 100 mg, day –2 single dose): 0.5 (n = 1) L/h
- Cmax ([1]; 100 mg, day –2 single dose): 284 (112) ng/mL
- fe, fraction of dose excreted in urine ([1]; 100 mg, day –2 single dose): 0.47 (n = 1) %
- t1/2 ([1]; 100 mg, day –2 single dose): 6.35 (3.36) h
- tmax ([1]; 100 mg, day –2 single dose): 2.05 (1.08, 3.00) h
- AUC(0-inf) [1, 4]: 2670 (1510) (n = 2) ng·h/mL
- AUC(0–24) [1, 4]: 3690 (2230) ng·h/mL
- Ae, amount of drug dose excreted in urine [1, 4]: 1.11 (0.33) mg
- CLR [1, 4]: 0.5 (0.4) L/h
- Cav,ss [1, 4]: 154 (93.1) ng/mL
- Cmax [1, 4]: 1430 (1080) ng/mL
- fe, fraction of dose excreted in urine [1, 4]: 0.55 (0.17) %
- t1/2 [1, 4]: 9.19 (4.83) (n = 2) h
- tmax [1, 4]: 1.00 (1.00, 2.00) h
- AUC(0-inf) ([1]; 200 mg, day –2 single dose): 3320 (1790) (n = 2) ng·h/mL
- AUC(0-t) ([1]; 200 mg, day –2 single dose): 3780 (1180) ng·h/mL
- AUC(0–24) ([1]; 200 mg, day –2 single dose): 3670 (1170) ng·h/mL
- Ae, amount of drug dose excreted in urine ([1]; 200 mg, day –2 single dose): 0.70 (0.60) (n = 3) mg
- CLR ([1]; 200 mg, day –2 single dose): 0.2 (0.15) (n = 3) L/h
- Cmax ([1]; 200 mg, day –2 single dose): 996 (676) ng/mL
- fe, fraction of dose excreted in urine ([1]; 200 mg, day –2 single dose): 0.34 (0.29) (n = 3) %
- t1/2 ([1]; 200 mg, day –2 single dose): 7.08 (1.16) (n = 2) h
- tmax ([1]; 200 mg, day –2 single dose): 3.10 (1.03, 4.18) h
- AUC(0-inf) [1, 5]: 3240 (820) (n = 2) ng·h/mL
- AUC(0–24) [1, 5]: 4730 (2730) ng·h/mL
- Ae, amount of drug dose excreted in urine [1, 5]: 2.05 (1.09) mg
- CLR [1, 5]: 0.4 (0.14) L/h
- Cav,ss [1, 5]: 197 (114) ng/mL
- Cmax [1, 5]: 1130 (1030) ng/mL
- fe, fraction of dose excreted in urine [1, 5]: 0.51 (0.27) %
- t1/2 [1, 5]: 4.16 (1.72) (n = 2) h
- tmax [1, 5]: 4.00 (0.5, 4.00) h
- AUC(0-inf) ([1]; 400 mg, day –2 single dose): 4800 (3000) (n = 3) ng·h/mL
- AUC(0-t) ([1]; 400 mg, day –2 single dose): 4800 (2450) ng·h/mL
- AUC(0–24) ([1]; 400 mg, day –2 single dose): 4690 (2400) ng·h/mL
- Ae, amount of drug dose excreted in urine ([1]; 400 mg, day –2 single dose): 2.77 (1.82) mg
- CLR ([1]; 400 mg, day –2 single dose): 0.6 (0.34) L/h
- Cmax ([1]; 400 mg, day –2 single dose): 999 (619) ng/mL
- fe, fraction of dose excreted in urine ([1]; 400 mg, day –2 single dose): 0.69 (0.45) %
- t1/2 ([1]; 400 mg, day –2 single dose): 8.62 (0.54) (n = 3) h
- tmax ([1]; 400 mg, day –2 single dose): 2.04 (1.03, 4.05) h
- AUC(0-inf) [1, 6]: 9660 (4550) (n = 4) ng·h/mL
- AUC(0–24) [1, 6]: 7900 (4730) ng·h/mL
- Ae, amount of drug dose excreted in urine [1, 6]: 2.25 (1.28) mg
- CLR [1, 6]: 0.3 (0.12) L/h
- Cav,ss [1, 6]: 329 (198) ng/mL
- Cmax [1, 6]: 2230 (1570) ng/mL
- fe, fraction of dose excreted in urine [1, 6]: 0.38 (0.21) %
- t1/2 [1, 6]: 5.05 (1.76) (n = 4) h
- tmax [1, 6]: 1.14 (0.50, 4.05) h
- AUC(0-inf) ([1]; 600 mg, day –2 single dose): 10,700 (5040) (n = 4) ng·h/mL
- AUC(0-t) ([1]; 600 mg, day –2 single dose): 8120 (4990) ng·h/mL
- AUC(0–24) ([1]; 600 mg, day –2 single dose): 7930 (4990) ng·h/mL
- Ae, amount of drug dose excreted in urine ([1]; 600 mg, day –2 single dose): 2.90 (0.51) mg
- CLR ([1]; 600 mg, day –2 single dose): 5.0 (13.0) L/h
- Cmax ([1]; 600 mg, day –2 single dose): 2250 (1330) ng/mL
- fe, fraction of dose excreted in urine ([1]; 600 mg, day –2 single dose): 0.48 (0.09) %
- t1/2 ([1]; 600 mg, day –2 single dose): 7.17 (2.98) (n = 4) h
- tmax ([1]; 600 mg, day –2 single dose): 2.12 (0.50, 24.3) h
- AUC(0-inf) [1, 7]: 12,000 (5910) (n = 4) ng·h/mL
- AUC(0–24) [1, 7]: 12,400 (5230) ng·h/mL
- Ae, amount of drug dose excreted in urine [1, 7]: 4.70 (2.91) mg
- CLR [1, 7]: 0.5 (0.34) L/h
- Cav,ss [1, 7]: 516 (218) ng/mL
- Cmax [1, 7]: 4120 (2160) ng/mL
- fe, fraction of dose excreted in urine [1, 7]: 0.68 (0.47) %
- t1/2 [1, 7]: 6.44 (1.56) (n = 4) h
- tmax [1, 7]: 0.50 (0.0, 1.97) h
- AUC(0-inf) ([1]; 800 mg, day –2 single dose): 12,900 (3350) (n = 4) ng·h/mL
- AUC(0-t) ([1]; 800 mg, day –2 single dose): 11,500 (3370) ng·h/mL
- AUC(0–24) ([1]; 800 mg, day –2 single dose): 11,300 (3230) ng·h/mL
- Ae, amount of drug dose excreted in urine ([1]; 800 mg, day –2 single dose): 4.00 (1.73) mg
- CLR ([1]; 800 mg, day –2 single dose): 0.4 (0.12) L/h
- Cmax ([1]; 800 mg, day –2 single dose): 4430 (2470) ng/mL
- fe, fraction of dose excreted in urine ([1]; 800 mg, day –2 single dose): 0.50 (0.22) %
- t1/2 ([1]; 800 mg, day –2 single dose): 9.45 (2.42) (n = 4) h
- tmax ([1]; 800 mg, day –2 single dose): 0.79 (0.50, 2.00) h
- Drug dose excreted unchanged in urine ([1]; across doses): Less than 1.5%
- Elimination half-life, t1/2 ([1]; across doses): approximately 8 h
